Common to all, as to assay type: cell-based
One test concerns mTORC1 over mTORC2. The experiment in a line: mTORC1 over mTORC2 selectivity by comparing pS6K1 and pAKT IC50. As to conditions: by comparing pS6K1 and pAKT IC50, 90 min. The gist of the method:
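MCF-7 cells were treated with compounds (0.5% final DMSO) for 90 minutes in one protocol and 2 hours in the other, then lysed. Phospho-signal in lysates was read by bead-based donor/acceptor proximity assay. pS6K1 and pAKT IC50 values were compared to judge mTORC1 over mTORC2 selectivity, at 90 min and at 24 hrs.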

Test [1] relates to p-Akt 1/2/3 (Ser473) in MCF-7 cells. The experiment in a line: AlphaLISA Ultra pAKT assay. As to conditions: Homo sapiens, 1.5 h; MCF7 cells, 90 min. The gist of the method:
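MCF-7 cells (16,000˜20,000 per well in 36 μL medium) were seeded in Corning 3701 plates for 20˜24 hour, refreshed with new medium for 90 minutes, then given 12 μL of 4× compound (0.5% final DMSO). Cells were lysed with 2× lysis buffer, and lysate was analyzed by AlphaLISA Ultra pAKT using acceptor and donor beads, read on an EnSpire reader.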
Background: In Alpha technology, singlet oxygen from a donor bead excites a nearby acceptor bead.

Test [2] deals with p-p70 S6 Kinase (Thr389) in MCF-7 cells. The experiment in a line: AlphaLISA Ultra pS6K1 assay. As to conditions: Homo sapiens, 1.5 h; MCF7 cells, 90 min. The procedure, abridged:
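Phospho-S6K1 (Thr389) quantified by AlphaLISA Ultra read-out (2 h acceptor, then 2 h donor beads) in lysates of MCF-7 cells. Cells were plated 20–24 h before, refed 2 h, exposed to compounds for 90 min at 0.5% final DMSO, and lysates stored at −80 °C.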

Bounds are passed on as bounds.

We go through ten compounds from US20220267352A1, “RAPAMYCIN ANALOGS AND USES THEREOF” (Anakuria Therapeutics, Inc., priority 2021, published 2022).

As a reminder, the IC50 is the point on the concentration scale where inhibition reaches its midpoint.

On to `CO[C@@H]1/C(C)=C/[C@@H](C)C(=O)C[C@@H]([C@H](C)C[C@@H]2CC[C@@H](OC)[C@H](OC)C2)OC(=O)[C@@H]2CCCCN2C(=O)C(=O)[C@]2(O)O[C@@H](CC[C@H]2C)C[C@@H](OCC2COCCO2)/C(C)=C/C=C/C=C/[C@@H](C)C[C@@H](C)C(=O)[C@@H]1OC` (stereo partly drawn) [I-39, (26E,28E,30E,31E,34R,35S,36R,37R,39S,41S,43R,44S,46R,47R,56R)-44-[(1R)-2-[(1S,3R,4R)-3,4-dimethoxycyclohexyl]-1-methyl-ethyl]-43-(1,4-dioxan-2-ylmethoxy)-56-hydroxy-46,47-dimethoxy-34,35,36,37,48,49-hexamethyl-66,67-dioxa-57-azatricyclohexatriaconta-26,28,30(48),31(49)-tetraene-50,51,52,53,54-pentone], for which the “mTORC1 selective @ 90 min” value in the test with mTORC1 over mTORC2 is listed as “Yes”. In addition, the IC50 in test [1] was at least 1 µM; in test [2] it was 0.1 to 1 µM.
On the same counts, the results for `COCCS(=O)(=O)CCO[C@@H]1C[C@@H]2CC[C@@H](C)[C@@](O)(O2)C(=O)C(=O)N2CCCC[C@H]2C(=O)O[C@H]([C@H](C)C[C@@H]2CC[C@@H](OC)[C@H](OC)C2)CC(=O)[C@H](C)/C=C(\C)[C@@H](OC)[C@@H](OC)C(=O)[C@H](C)C[C@H](C)/C=C/C=C/C=C/1C` [I-42, (24E,26E,28E,29E,35R,36S,37R,38R,40S,42S,44R,45S,46R,47R,56R)-45-[(1R)-2-[(1S,3R,4R)-3,4-dimethoxycyclohexyl]-1-methyl-ethyl]-56-hydroxy-46,47-dimethoxy-44-[2-(2-methoxyethylsulfonyl)ethoxy]-35,36,37,38,48,49-hexamethyl-66,67-dioxa-57-azatricyclohexatriaconta-24,26,28(48),29(49)-tetraene-50,51,52,53,54-pentone] are “Yes”, at least 1 µM and 0.01 to 0.1 µM.
For `CO[C@@H]1/C(C)=C/[C@@H](C)C(=O)C[C@@H]([C@H](C)C[C@@H]2CC[C@@H](OCCCO)[C@H](OC)C2)OC(=O)[C@@H]2CCCCN2C(=O)C(=O)[C@]2(O)O[C@@H](CC[C@H]2C)C[C@@H](OCCOC2COC2)/C(C)=C/C=C/C=C/[C@@H](C)C[C@@H](C)C(=O)[C@@H]1OC` [I-44, (23E,25E,27E,28E,35R,36S,37R,38R,40S,42S,44R,45S,47R,48R,57R)-47,57-dihydroxy-45-[(1R)-2-[(1S,3R,4R)-4-(3-hydroxypropoxy)-3-methoxy-cyclohexyl]-1-methyl-ethyl]-48-methoxy-35,36,37,38,49,50-hexamethyl-44-[2-(oxetan-3-yloxy)ethoxy]-68,69-dioxa-58-azatricyclohexatriaconta-23,25,27(49),28(50)-tetraene-51,52,53,54,55-pentone], in that order: “Yes”, at least 1 µM and 0.001 to 0.01 µM.
For `COCCOCCO[C@@H]1C[C@@H]2CC[C@@H](C)[C@@](O)(O2)C(=O)C(=O)N2CCCC[C@H]2C(=O)O[C@H]([C@H](C)C[C@@H]2CC[C@@H](O)[C@H](OC)C2)CC(=O)[C@H](C)/C=C(\C)[C@@H](OC)[C@@H](OC)C(=O)[C@H](C)C[C@H](C)/C=C/C=C/C=C/1C` [I-48, (23E,25E,27E,28E,34R,35S,36R,37R,39S,41S,43R,44S,45R,46R,55R)-55-hydroxy-44-[(1R)-2-[(1S,3R,4R)-4-hydroxy-3-methoxy-cyclohexyl]-1-methyl-ethyl]-45,46-dimethoxy-43-[2-(2-methoxyethoxy)ethoxy]-34,35,36,37,47,48-hexamethyl-64,65-dioxa-56-azatricyclohexatriaconta-23,25,27(47),28(48)-tetraene-49,50,51,52,53-pentone], in that order: “Yes”, at least 1 µM and 0.001 to 0.01 µM.
For `CO[C@@H]1/C(C)=C/[C@@H](C)C(=O)C[C@@H]([C@H](C)C[C@@H]2CC[C@@H](OC)[C@H](OC)C2)OC(=O)[C@@H]2CCCCN2C(=O)C(=O)[C@]2(O)O[C@@H](CC[C@H]2C)CC(OCCOC2COC2)/C(C)=C/C=C/C=C/[C@@H](C)C[C@@H](C)C(=O)[C@@H]1OC` (stereo partly drawn) [I-50, (25E,27E,29E,30E,34R,35S,36R,37R,39S,41S,44S,46R,47R,56R)-44-[(1R)-2-[(1S,3R,4R)-3,4-dimethoxycyclohexyl]-1-methyl-ethyl]-56-hydroxy-46,47-dimethoxy-34,35,36,37,48,49-hexamethyl-43-[2-(oxetan-3-yloxy)ethoxy]-65,66-dioxa-57-azatricyclohexatriaconta-25,27,29(48),30(49)-tetraene-50,51,52,53,54-pentone], the “mTORC1 selective @ 90 min” value in the test on mTORC1 over mTORC2 was “Yes”. Also, the results for the IC50 in test [1] and in test [2] were at least 1 µM and 0.001 to 0.01 µM, respectively.
As to `CO[C@@H]1/C(C)=C/[C@@H](C)C(=O)C[C@@H]([C@H](C)C[C@@H]2CC[C@@H](OP(C)(C)=O)[C@H](OC)C2)OC(=O)[C@@H]2CCCCN2C(=O)C(=O)[C@]2(O)O[C@@H](CC[C@H]2C)CC(OCCOC2COC2)/C(C)=C/C=C/C=C/[C@@H](C)C[C@@H](C)C(=O)[C@@H]1OC` (stereo partly drawn) [I-75, (1R,2R,4S)-4-((2R)-2-((3S,6R,7E,9R,10R,12R,14S,15E,17E,19E,23S,26R,27R,34aS)-27-hydroxy-9,10-dimethoxy-6,8,12,14,20,26-hexamethyl-21-(2-(oxetan-3-yloxy)ethoxy)-1,5,11,28,29-pentaoxo-1,4,5,6,9,10,11,12,13,14,21,22,23,24,25,26,27,28,29,31,32,33,34,34a-tetracosahydro-3H-23,27-epoxypyrido[2,1-c][1]oxa[4]azacyclohentriacontin-3-yl)propyl)-2-methoxycyclohexyl dimethylphosphinate], the “mTORC1 selective @ 90 min” value in the test on mTORC1 over mTORC2 is given as “Yes”. Moreover, the IC50 in test [1] and in test [2] was at least 1 µM each time.
Consider `COCCO[C@@H]1CC[C@@H](C[C@@H](C)[C@@H]2CC(=O)[C@H](C)/C=C(\C)[C@@H](O)[C@@H](OC)C(=O)[C@H](C)C[C@H](C)/C=C/C=C/C=C(\C)C(OC[C@@H]3COCCO3)C[C@@H]3CC[C@@H](C)[C@@](O)(O3)C(=O)C(=O)N3CCCC[C@H]3C(=O)O2)C[C@H]1OC` (stereo partly drawn) [I-76, (1R,9S,12S,15R,16E,18R,19R,21R,23S,24E,26E,28E,32S,35R)-30-[[(2S)-1,4-dioxan-2-yl]methoxy]-1,18-dihydroxy-19-methoxy-12-[(1R)-2-[(1S,3R,4R)-3-methoxy-4-(2-methoxyethoxy)cyclohexyl]-1-methyl-ethyl]-15,17,21,23,29,35-hexamethyl-11,36-dioxa-4-azatricyclo[30.3.1.0^4,9]hexatriaconta-16,24,26,28-tetraene-2,3,10,14,20-pentone], for which the “mTORC1 selective @ 90 min” value with mTORC1 over mTORC2 is reported as “Yes”. The IC50 in test [1] was at least 1 µM; in test [2], under 0.001 µM.
On the same counts, the results for `CO[C@@H]1C[C@H](C[C@@H](C)[C@@H]2CC(=O)[C@H](C)/C=C(\C)[C@@H](O)[C@@H](OC)C(=O)[C@H](C)C[C@H](C)/C=C/C=C/C=C(\C)[C@H](OCCOC3COC3)C[C@@H]3CC[C@@H](C)[C@@](O)(O3)C(=O)C(=O)N3CCCC[C@H]3C(=O)O2)CC[C@H]1OP(C)(C)=O` [I-77, (1R,9S,12S,15R,16E,18R,19R,21R,23S,24E,26E,28E,30R,32S,35R)-12-[(1R)-2-[(1S,3R,4R)-4-dimethylphosphoryloxy-3-methoxy-cyclohexyl]-1-methyl-ethyl]-1,18-dihydroxy-19-methoxy-15,17,21,23,29,35-hexamethyl-30-[2-(oxetan-3-yloxy)ethoxy]-11,36-dioxa-4-azatricyclo[30.3.1.0^4,9]hexatriaconta-16,24,26,28-tetraene-2,3,10,14,20-pentone] are “Yes”, at least 1 µM and 0.01 to 0.1 µM.
In the case of `CO[C@@H]1C[C@H](C[C@@H](C)[C@@H]2CC(=O)[C@H](C)/C=C(\C)[C@@H](O)[C@@H](OC)C(=O)[C@H](C)C[C@H](C)/C=C/C=C/C=C(\C)[C@@H](OCCOC3COC3)C[C@@H]3CC[C@@H](C)[C@@](O)(O3)C(=O)C(=O)N3CCCC[C@H]3C(=O)O2)CC[C@H]1OP(C)(C)=O` [I-78, (1R,9S,12S,15R,16E,18R,19R,21R,23S,24E,26E,28E,30S,32S,35R)-12-[(1R)-2-[(1S,3R,4R)-4-dimethylphosphoryloxy-3-methoxy-cyclohexyl]-1-methyl-ethyl]-1,18-dihydroxy-19-methoxy-15,17,21,23,29,35-hexamethyl-30-[2-(oxetan-3-yloxy)ethoxy]-11,36-dioxa-4-azatricyclo[30.3.1.0^4,9]hexatriaconta-16,24,26,28-tetraene-2,3,10,14,20-pentone], the “mTORC1 selective @ 90 min” value in the test on mTORC1 over mTORC2 is listed as “Yes”. Also, the IC50 in test [1] is at least 1 µM; in test [2], under 0.001 µM.
On to `COCCO[C@@H]1CC[C@@H](C[C@@H](C)[C@@H]2CC(=O)[C@H](C)/C=C(\C)[C@@H](O)[C@@H](OC)C(=O)[C@H](C)C[C@H](C)/C=C/C=C/C=C(\C)C(OC[C@H]3COCCO3)C[C@@H]3CC[C@@H](C)[C@@](O)(O3)C(=O)C(=O)N3CCCC[C@H]3C(=O)O2)C[C@H]1OC` (stereo partly drawn) [I-79, (1R,9S,12S,15R,16E,18R,19R,21R,23S,24E,26E,28E,32S,35R)-30-[[(2R)-1,4-dioxan-2-yl]methoxy]-1,18-dihydroxy-19-methoxy-12-[(1R)-2-[(1S,3R,4R)-3-methoxy-4-(2-methoxyethoxy)cyclohexyl]-1-methyl-ethyl]-15,17,21,23,29,35-hexamethyl-11,36-dioxa-4-azatricyclo[30.3.1.0^4,9]hexatriaconta-16,24,26,28-tetraene-2,3,10,14,20-pentone], for which the “mTORC1 selective @ 90 min” value in the test with mTORC1 over mTORC2 was “Yes”. Moreover, the IC50 in test [1] is at least 1 µM; in test [2], 0.001 to 0.01 µM.
